Test [1] concerns low-density lipoprotein (LDL). Description: percentage change in low-density lipoprotein in diabetic rats (FIG. 5). Type of test: in vivo, rat. Particulars: compared to white rice-fed and tween-treated rats.
For test [2], the system named is high-density lipoprotein (HDL). The test can be described thus: percentage change in high-density lipoprotein in diabetic rats (FIG. 7). Type of test: in vivo, rat. Particulars: A200: ASG in 200 mg/kg body weight, compared to white-rice fed and metformin-treated rats.

As to `CN(C)C(=N)N=C(N)N` [metformin, reference compound], the “LDL level (percentage change in low-density lipoprotein)” value in test [1] (fed/treated groups) is reported as “reduced”.

With acylated steryl glucoside [ASG], the “HDL level (percentage change in high-density lipoprotein)” value in test [2] was “increased”. Also, the “LDL level (percentage change in low-density lipoprotein)” value in test [1] (A100: ASG in 100 mg/kg body weight) and in test [1] (A200: ASG in 200 mg/kg body weight) was “reduced” throughout.

These data come from US20140142053A1, “Use of a Composition Comprising Acylated Steryl Glucoside in the Manufacture of a Product” (UNIVERSITI PUTRA MALAYSIA, priority 2011, published 2014).
